From US4870057A, “Use of fructose-1,6-diphosphate in the treatment of acute alcoholic intoxication and chronic ethylism, and related pharmaceutical compositions” (priority 1988, dated 1989)
Values joined by “and” are separate entries in the source; they are usually repeats but may differ in a detail not shown here. Equal entries are not always repeated.

Experiments:
[1] = tested on: patients in a state of acute drunkenness; experiment: Vital signals (heart rate, arterial pressure) in patients with acute drunkenness; type: in vivo, patients (human)
Method: (§1) 28 patients were selected, 26 males and 2 females, aged 17 to 68, which had been taken to a first aid post for traumas suffered during a state of acute drunkenness (18 cases) or to phenomena resulting from that state of drunkenness (10 cases). Of the patients under observation, 18 were chronic alcoholics and 10 were subjects with no alcoholism story (Table 4).
(§2) The patients then received, at random, one rapid infusion of 15 g FDP as a 10% sodium salt solution of FDP, or a 5% (150 ml) glucose solution. 15 minutes after the completion of infusion, evaluations were repeated.
(§3) Following the first anamnestic and diagnostic checks, measurements were taken of the arterial pressure and the heart rate. Then, evaluation was made, in basal conditions, of the psychic and behavioral state (psychomotor excitement, vigilance, time-space orientation and lucidity) and the neurological state (equilibrium, forefinger-nose test, palpebral, corneal and pain reflexes). For the semiquantitative evaluation of the selected parameters, severity scales with arbitrary ratings were adopted. Evaluation of lucidity was made by using the figure repeating test.
(§4) The data obtained for each patient were compared with those obtained before the treatment by means of the mixed pattern variance analysis followed, in case of gross significance, by the Tukey's multiple comparison test. A 5% level was used as the minimum level of statistical significance.

[2] = Tolerability in patients with acute drunkenness; conditions: human, in vivo
Method: as §1, §2

[3] = Ethanol hematic concentrations and pharmacokinetics in volunteers given ethanol orally after FDP infusion (cross-over); type: in vivo, male volunteers (human)
Excerpt: (§5) Male volunteers (ages 19 to 46, 73 kg average weight) in good conditions of health as ascertained by objective test and hematologic and biochemical analyses, participated in the investigation. None of the subjects had used drugs during the week before the study nor in the course of the study.
(§6) Each subject was given, in two sittings, with one wash-out week interval between sittings, ethanol (control) and ethanol with added fructose-1,6-diphosphate (FDP) according to an experimental cross-over design. After one night of fasting, each patient received ethanol orally, in the morning, at a rate of 0.5 g/kg body weight, as a 30% analytical grade ethyl alcohol solution in effervescent mineral water. FDP was administered at the rate of 250 mg/kg of fructose-1,6-diphosphate sodium hydrate salt in an intravenous infusion during 20 minutes (2.5 ml/kg).
(§7) From the individual data obtained in each sitting and for each subject, the values of the following parameters were calculated: maximum concentration (Cmax), time for attaining maximum concentration (Tmax), mean life of absorption (Ab t1/2), mean life of elimination (El t1/2) and area under curve zero to infinity (AUC). The ethanol and acetaldehyde concentrations were measured in the two sittings of study and the values of the pharmacokinetic parameters given above were compared by the Student's t-test for paired data, with the exception of the maximum concentration times of ethanol which were compared by the Wilcoxon test. The level of statistical significances was set at 5%.

[4] = tested on: patients in a state of acute drunkenness; experiment: Impairment scores in neurologic tests in patients with acute drunkenness; type: in vivo, patients (human)
Method: as §1, §2, §3, §4

[5] = tested on: patients in a state of acute drunkenness; experiment: Psychic and behavioural conditions scores in patients with acute drunkenness; type: in vivo, patients (human)
Method: as §1, §2, §3, §4

[6] = tested on: chronic alcoholics at a stage of detoxication; experiment: Neurological symptoms (impairment scores in neurological tests) in chronic alcoholics at a stage of detoxication; type: in vivo, patients (human); conditions: for Reflexes impairment score: basal 1.6, control 1.2; for Ataxia-tremors cramps impairment score: basal 1.7; for Sensitivity impairment score: basal 3.0
Method: (§8) This study left out patients more than 70 years old or patients suffering from severe renal or cardiovascular impairment, diabetes or other pathologies (epilepsy, delirium […] could prevent evaluation of the investigated treatment. During study, which was conducted single blind, two therapeutic procedures were compared for a period of 8 days allotted as follows: one day (I) for selection and basic determinations at the time of alcohol withdrawal; six days (II-VII) for treatment; one day (VIII) for follow-up. […] Some of the patients received, days II to IV, a total parenteral nutrition (NTP) followed by hypercaloric diet during the remaining three days. During the study, no further drugs were administered except those which would be required by concomitant pathologies and which could not interfere with the nutritional state. In the patients imperatively requiring a control of psychomotor derangement during the abstinence period, chlordimethyldiazepam (2 mg/iv) was used and the daily doses thereof were recorded. On the first day the history, particularly in respect of alcoholism, was obtained. On days I, V and VIII a thorough examination of the patient's neurological and psychiatric conditions was performed. The psychic areas were evaluated by using simplified rating scales for the psychomotor derangement and the behaviour and consciousness disorders present in the alcohol withdrawal period. For the neurological evaluation, there were taken into consideration the reflexes, the exteroceptive and propioceptive sensitivities and the presence of ataxia, tremors and cramps, and semiquantitative ratings of 0 (no symptom or normal picture) to 3 (high severity symptom or no response) were assigned.

[7] = tested on: chronic alcoholics at a stage of detoxication; experiment: Psychiatric symptoms (psychic and behavioural state scores) in chronic alcoholics at a stage of detoxication; type: in vivo, patients (human); conditions: for Motor derangement score: FDP group (20 g/day i.v. days II-VII plus nutrition), basal 1.4; for Motor derangement score / Behavioural disorders score / Conscience disorders score: p < 0.01 vs basal; for Behavioural disorders score / Conscience disorders score: FDP group; for Behavioural disorders score: basal 1.3; for Conscience disorders score: basal 1.5
Method: as §8

[8] = Acetaldehyde hematic concentrations in volunteers given ethanol orally after FDP infusion (cross-over); type: in vivo, male volunteers (human); conditions: Student's t test for coupled data
Excerpt: as §5
as §6, with “FDP was administered at the rate of 250 mg/kg of fructose-1,6-diphosphate sodium hydrate salt in an intravenous infusion during 20 minutes (2.5 ml/kg).” left out
as §7, with “The level of statistical significances was set at 5%.” left out

[9] = no test described; cited from earlier work

For `O=C(COP(=O)(O)O)[C@@H](O)[C@H](O)[C@H](O)COP(=O)(O)O` [FDP, fructose-1,6-diphosphate], the “Arterial diastolic pressure, final” value ([1]; 15 min after infusion of 15 g FDP, basal 67.9 (text 68), p < 0.05 vs basal, glucose 69.6 to 69.6) was 75.3 mm Hg and 75 mm Hg, the “Cardiac frequency, final” value ([1]; 15 min after infusion of 15 g FDP, basal 103.1, p < 0.01 vs basal, glucose 101.7 to 96.9) was 94.4 beats/minute and the “Arterial sistolic pressure, final” value ([1]; 15 min after infusion of 15 g FDP, basal 113.2, glucose 113.1 to 110.8) was 116.5 mm Hg. For the same compound, the “Blood pressure and heart rate in subjects with basal hypertension accompanied by tachycardia” value ([1]; after FDP) was “permits the normal values of both blood pressure and heart rate to be restored”, the “Heart rate, final” value ([1]; after FDP, from 103 basal, significant) was 94 pulsations/minute and the Tolerability [2] was “good tolerability”. For the same compound, the “Ethanol AUC in the 0-90 min range, lower following FDP” value ([3]; 0-90 min, vs control (FIG. 1)) was 40%, the “Percent difference of ethanol concentration after FDP with respect to control (lower)” value (“Percent difference … (lower)” for short) ([3]; 15 min) was 70% and the “Percent difference … (lower)” value ([3]; 30 min) was 64%. For the same compound, the “Percent difference … (lower)” value ([3]; 60 min) was 31%, the “Ethanol AUC (zero to infinity), average” value ([3]; FDP session, Table 2, n = 8, SD 976, control 2229) was 2695 mmol·min/L and the “Ethanol AUC (zero to infinity), average” value ([3]; FDP sitting, control 2695) was 2229 mmol·min/L. For the same compound, the “Significance of the difference in ethanol AUC vs control” value ([3]; Student's t test, paired) was “no significant differences”, the “Significance of the difference in ethanol maximum concentration vs control” value ([3]; Student's t test, paired) was “the observed difference did not attain statistical significance” and the “Difference in the alcohol absorption rate” value ([3]; from absorption half-life vs control, p<0.05) was 66%. For the same compound, the “Time for attaining maximum ethanol concentration, longer than control” value ([3]; p<0.05 vs control sitting) was 120%, the “Corneal reflex impairment score, final” value ([4]; 15 min after infusion of 15 g FDP, basal 0.1, glucose 0.1 to 0.1) was 0.0 and the “Palpebral reflex impairment score, final” value ([4]; 15 min after infusion of 15 g FDP, basal 0.4, p < 0.05 vs basal, glucose 0.5 to 0.1) was 0.0. The “Pain reflex impairment score, final” value ([4]; 15 min after infusion of 15 g FDP, basal 0.9, p < 0.05 vs basal, glucose 0.5 to 0.2) was 0.3, the “"Forefinger-nose" test impairment score, final” value ([4]; 15 min after infusion of 15 g FDP, basal 1.3, p < 0.01 vs basal, glucose 0.9 to 0.7) was 0.4 and the “Equilibrium impairment score, final” value ([4]; 15 min after infusion of 15 g FDP, basal 1.6, p < 0.01 vs basal, glucose 1.1 to 0.9) was 1.1. The “Postural equilibrium, forefinger-nose test, palpebral and pain reflexes” value ([4]; after FDP) was “significantly improved”, the “Corneal reflex in patients with basal impairment” value ([4]; at the end of FDP treatment, all the patients) was “normal state in this respect at the end of FDP treatment” and the “Motor derangement score, final” value ([5]; 15 min after infusion of 15 g FDP, basal 1.1, p < 0.01 vs basal, glucose 1.0 to 0.7) was 0.3. The “Vigilance impairment score, final” value ([5]; 15 min after infusion of 15 g FDP, basal 1.1, p < 0.01 vs basal, glucose 1.2 to 1.0 (p < 0.05 vs final FDP)) was 0.5, the “Lucidity level score, final” value ([5]; 15 min after infusion of 15 g FDP, basal 1.6, p < 0.01 vs basal, glucose 1.5 to 2.5) was 3.6 and the “Orientation impairment score, final” value ([5]; 15 min after infusion of 15 g FDP, basal 4.5, p < 0.01 vs basal, glucose 4.3 to 3.4 (p < 0.05 vs final FDP)) was 1.7. The “Comparison of treatments, final values for vigilance and orientation” value ([5]; FDP vs glucose solution) was “significant difference between FDP and glucose solution”, the “State of psychomotor disorder” value ([5]; after FDP) was “tends towards complete disappearance” and the “Vigilance, orientation and mental lucidity” value ([5]; after FDP) was “notably improved, with the tendency being towards return to normal levels”. For the same compound, the “Psychic and behavioural state, all parameters” value ([5]; after FDP vs basal) was “all of the parameters show to be positively and significantly influenced”, the Reflexes impairment score ([6]; FDP group (20 g/day i.v. days II-VII plus nutrition), day V) was 1.2 and the “Ataxia-tremors cramps impairment score” value ([6]; FDP group, day V, p < 0.01 vs basal, control 0.9) was 1.0. The Sensitivity impairment score ([6]; FDP group, day V, p < 0.01 vs basal, control 2.4) was 2.1, the Reflexes impairment score ([6]; FDP group, day VIII, p < 0.01 vs basal) was 1.0 and the “Ataxia-tremors cramps impairment score” value ([6]; FDP group, day VIII, p < 0.01 vs basal, control 0.8) was 0.5. The Sensitivity impairment score ([6]; FDP group, day VIII, p < 0.01 vs basal, control 1.7) was 1.8, the “Reflexes, recovery” value ([6]; day VIII, only in FDP treated group) was “the reflexes recovered to normal” and the “Remaining neurological symptomatology, FDP vs control” value ([6]; evolutive tendency in the course of the study) was “does not evidence any difference betwen the two treatments”. The Motor derangement score ([7]; day V, control 0.8) was 0.6, the Motor derangement score ([7]; day VIII, control 0.5) was 0.4 and the Behavioural disorders score ([7]; day V, control 0.7) was 0.4. For the same compound, the Conscience disorders score ([7]; day V, control 0.6) was 0.3, the Behavioural disorders score ([7]; day VIII, control 0.5) was 0.3 and the Conscience disorders score ([7]; day VIII, control 0.5) was 0.2. The Consumption of chlordimethyldiazepam ([7]; FDP vs no FDP) was “higher consumption of chlordimethyldiazepam required by patients not having get FDP”, the “Psychiatric symptoms, improvement” value ([7]; day V, FDP treated patients only, p<0.01) was “improvement of all of the considered symptoms” and the Consciousness disorders ([7]; eighth day, FDP treated patients, not in control group) was “the consciousness disorders did disappear in FDP treated patients”. For the same compound, the “Psychiatric symptomatology connected with the alcohol withdrawal” value ([7]; patients treated with FDP) was “disappeared after only five days of treatment”, the “Significance of acetaldehyde concentration differences, FDP vs control” value [8] was “no statistically significant differences at any of the considered times and ns” and the “Elimination half-life of the FDP” value [9] was “less than 15 minutes”.
